According to BindingDB's records for doi:10.1021/jm000484+ (Abbott Laboratories, 2001):

Tests used:
[1] = In vitro immunosuppression in stimulated T cells expressing Voltage-gated potassium channel subunit Kv1.3
[2] = In vitro immunosuppression in stimulated T cells expressing Voltage-gated potassium channel subunit Kv1.3; Range is 1-10

EC50 [1] | IC50 [2] | SMILES
1000 nM |  | CCC/N=c1\ccn(Cc2ccccc2)c2cc(Cl)ccc12
 | 1000 nM | CCNC(=O)c1cc(/C=C/CCc2ccccc2)ccc1-c1ccc(Cl)cc1 [4'-Chloro-4-((E)-4-phenyl-but-1-enyl)-biphenyl-2-carboxylic acid ethylamide]
